Reference: US20250381149A1, “CATIONIC AMPHIPHILIC COMPOUND-BASED NANOPARTICLE COMPOSITIONS” (Universiteit Gent, priority 2022, published 2025)
Structures can show the parent of a compound that is named as a salt.

test: Self-assembly of CAD with DOPE (50:50) into vesicles, ethanol dilution or lipid film hydration; assay type: physicochemical; conditions: CAD:DOPE 50:50
Method: Preparation of CAD-DOPE nanoparticles. […] The lipids DOTAP (1,2-dioleoyl-3-trimethylammonium-propane) and DOPE (1,2-dioleoyl-sn-glycero-3-phosphoethanolamine) were purchased from Avanti Polar Lipids (Alabaster, USA).
For the ethanol dilution (ED) method, CADs (10 mg/ml) and DOPE (25 mg/ml) were separately dissolved in absolute ethanol. […] For the lipid film hydration method CAD (10 mg/ml) and DOPE (25 mg/ml) were dissolved in chloroform (50:50 mol ratio) and transferred to a brown glass vial, followed by chloroform evaporation under nitrogen flow. […] The classically used cationic DOTAP-DOPE liposomes (50:50 mol ratio) were likewise prepared via lipid film hydration, as previously reported in literature and diluted in HEPES buffer (pH 7.4, 20 mM) to obtain a final lipid concentration of 3.9 mM. Hydrodynamic diameter, polydispersity index (PDI) and zeta-potential of all formulations were determined via dynamic light scattering (DLS) (Zetasizer Nano, Malvern Instruments, Worcestershire, United Kingdom).

| Compound | vesicle formation with DOPE |
| --- | --- |
| CN(C)CCC=C1c2ccccc2CCc2ccccc21 [Amitriptyline hydrochloride] | successful vesicle formation |
| CNCCCN1c2ccccc2CCc2ccccc21 [Desipramine hydrochloride] | successful vesicle formation |
| Clc1ccc2c(c1)CCc1cccnc1C2=C1CCNCC1 [Desloratadine] | successful vesicle formation |
| NC1=NCC2c3ccccc3Cc3ccccc3N12 (stereo not drawn) [Epinastine] | did not self-assemble with DOPE |
| CN(C)CCCN1c2ccccc2CCc2ccccc21 [Imipramine hydrochloride] | successful vesicle formation |
| CN1CCC(=C2c3ccccc3CC(=O)c3sccc32)CC1 [Ketotifen] | did not self-assemble with DOPE |
